# Reference: ChEMBL document CHEMBL3044730, “Synthesis, antimycobacterial, antiviral, antimicrobial activities, and QSAR studies of nicotinic acid benzylidene hydrazide derivatives” (Med Chem Res, 2012)
# System: Coxsackievirus B4
# Assay: Antiviral activity against Human coxsackievirus B4 infected human HeLa cells assessed as inhibition of virus-induced cytopathicity by microscopy
# Format: functional, organism-based
# Conditions: Enterovirus B
row,SMILES,EC50 [µg/mL]
1,COc1ccc(/C=N/NC(=O)c2cccnc2)cc1,> 100
2,O=C(N/N=C/c1ccccc1[N+](=O)[O-])c1cccnc1,> 100
3,O=C(N/N=C/c1cccc([N+](=O)[O-])c1)c1cccnc1,> 4

# System: Human respirovirus 3
# Assay: Antiviral activity against Human parainfluenza virus 3 infected Vero cells assessed as inhibition of virus-induced cytopathicity by microscopy
# Format: functional, organism-based
# Conditions: Human respirovirus 3, Vero
row,SMILES,EC50 [µg/mL]
1,COc1ccc(/C=N/NC(=O)c2cccnc2)cc1,> 100
2,O=C(N/N=C/c1ccccc1[N+](=O)[O-])c1cccnc1,> 100
3,O=C(N/N=C/c1cccc([N+](=O)[O-])c1)c1cccnc1,> 100

# System: Candida albicans
# Assay: Antimicrobial activity against Candida albicans after 7 days by serial dilution method
# Format: functional
# Design: unit not given here
# Conditions: not given
row,SMILES,-logMIC
1,COc1ccc(/C=N/NC(=O)c2cccnc2)cc1,1.61
2,O=C(N/N=C/c1ccccc1[N+](=O)[O-])c1cccnc1,1.94
3,O=C(N/N=C/c1cccc([N+](=O)[O-])c1)c1cccnc1,1.64

# System: Vaccinia virus
# Assay: Antiviral activity against Vaccinia virus infected human HEL cells assessed as inhibition of virus-induced cytopathicity by microscopy
# Format: functional, organism-based
# Conditions: Orthopoxvirus vaccinia
row,SMILES,EC50 [µg/mL]
1,COc1ccc(/C=N/NC(=O)c2cccnc2)cc1,> 100
2,O=C(N/N=C/c1ccccc1[N+](=O)[O-])c1cccnc1,> 100
3,O=C(N/N=C/c1cccc([N+](=O)[O-])c1)c1cccnc1,> 100

# System: Human herpesvirus 3 strain Oka vaccine
# Assay: Antiviral activity against Human herpesvirus 3 strain Oka vaccine OKA 07-1 (Varicella zoster virus) infected in human HEL cells assessed as inhibition of virus-induced cytopathicity
# Format: functional, organism-based
# Conditions: Human alphaherpesvirus 3, OKA 07-1, HEL
row,SMILES,EC50 [µg/mL]
1,COc1ccc(/C=N/NC(=O)c2cccnc2)cc1,> 100
2,O=C(N/N=C/c1ccccc1[N+](=O)[O-])c1cccnc1,> 100
3,O=C(N/N=C/c1cccc([N+](=O)[O-])c1)c1cccnc1,> 100

# System: Candida albicans
# Assay: Antimicrobial activity against Candida albicans after 2 days by serial dilution method
# Format: functional
# Design: unit not given here
# Conditions: not given
row,SMILES,-logMIC
1,COc1ccc(/C=N/NC(=O)c2cccnc2)cc1,1.31
2,O=C(N/N=C/c1ccccc1[N+](=O)[O-])c1cccnc1,1.33
3,O=C(N/N=C/c1cccc([N+](=O)[O-])c1)c1cccnc1,1.33

# System: not listed separately
# Assay: Cytotoxicity against Homo sapiens (human) HEL cells assessed as alteration in cell morphology by microscopy
# Format: cell-based
# Conditions: not given
SMILES,CC50 [µg/mL],MCC [µg/mL]
COc1ccc(/C=N/NC(=O)c2cccnc2)cc1,> 100,> 100
O=C(N/N=C/c1ccccc1[N+](=O)[O-])c1cccnc1,46,> 100
O=C(N/N=C/c1cccc([N+](=O)[O-])c1)c1cccnc1,13,> 100

# System: Vesicular stomatitis virus
# Assay: Antiviral activity against Vesicular stomatitis virus infected human HeLa cells assessed as inhibition of virus-induced cytopathicity by microscopy
# Format: functional, organism-based
# Conditions: not given
row,SMILES,EC50 [µg/mL]
1,COc1ccc(/C=N/NC(=O)c2cccnc2)cc1,> 100
2,O=C(N/N=C/c1ccccc1[N+](=O)[O-])c1cccnc1,> 100
3,O=C(N/N=C/c1cccc([N+](=O)[O-])c1)c1cccnc1,> 4

# System: Staphylococcus aureus
# Assay: Antimicrobial activity against Staphylococcus aureus after 24 hr by serial dilution method
# Format: functional
# Design: unit not given here
# Conditions: not given
row,SMILES,-logMIC
1,COc1ccc(/C=N/NC(=O)c2cccnc2)cc1,1.31
2,O=C(N/N=C/c1ccccc1[N+](=O)[O-])c1cccnc1,1.33
3,O=C(N/N=C/c1cccc([N+](=O)[O-])c1)c1cccnc1,1.33

# System: Bacillus subtilis
# Assay: Antimicrobial activity against Bacillus subtilis after 24 hr by serial dilution method
# Format: functional
# Design: unit not given here
# Conditions: not given
row,SMILES,-logMIC
1,COc1ccc(/C=N/NC(=O)c2cccnc2)cc1,1.31
2,O=C(N/N=C/c1ccccc1[N+](=O)[O-])c1cccnc1,1.94
3,O=C(N/N=C/c1cccc([N+](=O)[O-])c1)c1cccnc1,1.64

# System: Respiratory syncytial virus
# Assay: Antiviral activity against Respiratory syncytial virus infected human HeLa cells assessed as inhibition of virus-induced cytopathicity by microscopy
# Format: functional, organism-based
# Conditions: not given
row,SMILES,EC50 [µg/mL]
1,COc1ccc(/C=N/NC(=O)c2cccnc2)cc1,> 100
2,O=C(N/N=C/c1ccccc1[N+](=O)[O-])c1cccnc1,> 100
3,O=C(N/N=C/c1cccc([N+](=O)[O-])c1)c1cccnc1,> 4

# System: not listed separately
# Assay: Cytotoxicity against Chlorocebus aethiops (African green monkey) Vero cells assessed as alteration in cell morphology by microscopy
# Format: cell-based
# Conditions: chlorocebus sabaeus
row,SMILES,MCC [µg/mL]
1,COc1ccc(/C=N/NC(=O)c2cccnc2)cc1,> 100
2,O=C(N/N=C/c1ccccc1[N+](=O)[O-])c1cccnc1,> 100
3,O=C(N/N=C/c1cccc([N+](=O)[O-])c1)c1cccnc1,≥ 100

# System: Human immunodeficiency virus 1
# Assay: Antiviral activity against Human immunodeficiency virus 1 IIIB infected MT4 cells assessed as inhibition of virus-induced cytopathic effect after 4 days by MTT assay
# Format: functional, organism-based
# Conditions: MT4, 96 h
row,SMILES,EC50 [µg/mL]
1,COc1ccc(/C=N/NC(=O)c2cccnc2)cc1,> 99
2,O=C(N/N=C/c1ccccc1[N+](=O)[O-])c1cccnc1,> 68
3,O=C(N/N=C/c1cccc([N+](=O)[O-])c1)c1cccnc1,> 54

# System: Human alphaherpesvirus 2
# Assay: Antiviral activity against Human herpesvirus 2 strain G infected human HEL cells assessed as inhibition of virus-induced cytopathicity by microscopy
# Format: functional, organism-based
# Conditions: Human alphaherpesvirus 2, strain G
row,SMILES,EC50 [µg/mL]
1,COc1ccc(/C=N/NC(=O)c2cccnc2)cc1,> 100
2,O=C(N/N=C/c1ccccc1[N+](=O)[O-])c1cccnc1,> 100
3,O=C(N/N=C/c1cccc([N+](=O)[O-])c1)c1cccnc1,> 100

# System: Human alphaherpesvirus 1
# Assay: Antiviral activity against Human herpesvirus 1 strain KOS infected in human HEL cells assessed as inhibition of virus-induced cytopathicity by microscopy by microscopy
# Format: functional, organism-based
# Conditions: Human alphaherpesvirus 1, KOS
row,SMILES,EC50 [µg/mL]
1,COc1ccc(/C=N/NC(=O)c2cccnc2)cc1,> 100
2,O=C(N/N=C/c1ccccc1[N+](=O)[O-])c1cccnc1,> 100
3,O=C(N/N=C/c1cccc([N+](=O)[O-])c1)c1cccnc1,> 100

# System: Punta Toro virus
# Assay: Antiviral activity against Punta Toro virus infected Vero cells assessed as inhibition of virus-induced cytopathicity
# Format: functional, organism-based
# Conditions: not given
row,SMILES,EC50 [µg/mL]
1,COc1ccc(/C=N/NC(=O)c2cccnc2)cc1,> 100
2,O=C(N/N=C/c1ccccc1[N+](=O)[O-])c1cccnc1,> 100
3,O=C(N/N=C/c1cccc([N+](=O)[O-])c1)c1cccnc1,> 100

# System: not listed separately
# Assay: Cytotoxicity against Homo sapiens (human) HeLa cells assessed as alteration in cell morphology by microscopy
# Format: cell-based
# Conditions: not given
row,SMILES,MCC [µg/mL]
1,COc1ccc(/C=N/NC(=O)c2cccnc2)cc1,> 100
2,O=C(N/N=C/c1ccccc1[N+](=O)[O-])c1cccnc1,> 100
3,O=C(N/N=C/c1cccc([N+](=O)[O-])c1)c1cccnc1,20

# System: Human alphaherpesvirus 1
# Assay: Antiviral activity against TK(-) aciclovir-resistant Human herpesvirus 1 strain KOS infected in human HEL cells assessed as inhibition of virus-induced cytopathicity
# Format: functional, organism-based
# Conditions: Human alphaherpesvirus 1, KOS
row,SMILES,EC50 [µg/mL]
1,COc1ccc(/C=N/NC(=O)c2cccnc2)cc1,> 100
2,O=C(N/N=C/c1ccccc1[N+](=O)[O-])c1cccnc1,> 100
3,O=C(N/N=C/c1cccc([N+](=O)[O-])c1)c1cccnc1,> 100

# System: Coxsackievirus B4
# Assay: Antiviral activity against Human coxsackievirus B4 infected Vero cells assessed as inhibition of virus-induced cytopathicity
# Format: functional, organism-based
# Conditions: Enterovirus B
row,SMILES,EC50 [µg/mL]
1,COc1ccc(/C=N/NC(=O)c2cccnc2)cc1,> 100
2,O=C(N/N=C/c1ccccc1[N+](=O)[O-])c1cccnc1,> 100
3,O=C(N/N=C/c1cccc([N+](=O)[O-])c1)c1cccnc1,> 100

# System: Human herpesvirus 5 strain AD169
# Assay: Antiviral activity against Human herpesvirus 5 strain AD169 Davis infected human HEL cells assessed as inhibition of virus-induced cytopathicity by microscopy
# Format: functional, organism-based
# Conditions: Human betaherpesvirus 5, Davis
row,SMILES,EC50 [µg/mL]
1,COc1ccc(/C=N/NC(=O)c2cccnc2)cc1,> 100
2,O=C(N/N=C/c1ccccc1[N+](=O)[O-])c1cccnc1,> 100
3,O=C(N/N=C/c1cccc([N+](=O)[O-])c1)c1cccnc1,> 20

# System: Escherichia coli
# Assay: Antimicrobial activity against Escherichia coli after 24 hr by serial dilution method
# Format: functional
# Design: unit not given here
# Conditions: not given
row,SMILES,-logMIC
1,COc1ccc(/C=N/NC(=O)c2cccnc2)cc1,1.31
2,O=C(N/N=C/c1ccccc1[N+](=O)[O-])c1cccnc1,1.33
3,O=C(N/N=C/c1cccc([N+](=O)[O-])c1)c1cccnc1,1.94

# System: Mammalian orthoreovirus 1
# Assay: Antiviral activity against Mammalian orthoreovirus 1 infected Vero cells assessed as inhibition of virus-induced cytopathicity by microscopy
# Format: functional, organism-based
# Conditions: Mammalian orthoreovirus 1, Vero
row,SMILES,EC50 [µg/mL]
1,COc1ccc(/C=N/NC(=O)c2cccnc2)cc1,> 100
2,O=C(N/N=C/c1ccccc1[N+](=O)[O-])c1cccnc1,> 100
3,O=C(N/N=C/c1cccc([N+](=O)[O-])c1)c1cccnc1,> 100

# System: Sindbis virus
# Assay: Antiviral activity against Sindbis virus infected Vero cells assessed as inhibition of virus-induced cytopathicity
# Format: functional, organism-based
# Conditions: not given
row,SMILES,EC50 [µg/mL]
1,COc1ccc(/C=N/NC(=O)c2cccnc2)cc1,> 100
2,O=C(N/N=C/c1ccccc1[N+](=O)[O-])c1cccnc1,> 100
3,O=C(N/N=C/c1cccc([N+](=O)[O-])c1)c1cccnc1,> 100

# System: not listed separately
# Assay: Cytotoxicity against Homo sapiens (human) MT4 cells after 4 days by MTT assay
# Format: cell-based
# Conditions: not given
row,SMILES,CC50 at 96 h [µg/mL]
1,COc1ccc(/C=N/NC(=O)c2cccnc2)cc1,99
2,O=C(N/N=C/c1ccccc1[N+](=O)[O-])c1cccnc1,68
3,O=C(N/N=C/c1cccc([N+](=O)[O-])c1)c1cccnc1,54

# System: Human immunodeficiency virus 2
# Assay: Antiviral activity against Human immunodeficiency virus type 2 (ISOLATE ROD) infected MT4 cells assessed as inhibition of virus-induced cytopathic effect after 4 days by MTT assay
# Format: functional, organism-based
# Conditions: Human immunodeficiency virus 2, ISOLATE ROD, MT4, 96 h
row,SMILES,EC50 [µg/mL]
1,COc1ccc(/C=N/NC(=O)c2cccnc2)cc1,> 99
2,O=C(N/N=C/c1ccccc1[N+](=O)[O-])c1cccnc1,> 68
3,O=C(N/N=C/c1cccc([N+](=O)[O-])c1)c1cccnc1,> 54

# System: Mycobacterium tuberculosis
# Assay: Antimicrobial activity against Mycobacterium tuberculosis by agar dilution method
# Format: functional
# Conditions: not given
row,SMILES,MIC [µg/mL]
1,COc1ccc(/C=N/NC(=O)c2cccnc2)cc1,> 25
2,O=C(N/N=C/c1ccccc1[N+](=O)[O-])c1cccnc1,> 25
3,O=C(N/N=C/c1cccc([N+](=O)[O-])c1)c1cccnc1,> 25
